Laboratory results: ChEMBL document CHEMBL3352039, “Semisynthesis of triptolide analogues: effect of B-ring substituents on cytotoxic activities” (Bioorg Med Chem Lett, 2014)

What was measured:
[1] = Cytotoxicity against human PC3 cells assessed as inhibition of cell proliferation by sulforhodamine B assay; type: functional, cell-based; details: PC-3
U-251 = assay: Cytotoxicity against human U251 cells assessed as inhibition of cell proliferation by sulforhodamine B assay; type: functional, cell-based

| SMILES | IC50 [1] [nM] | IC50 (U-251) [nM] |
| --- | --- | --- |
| CC(C)[C@]12O[C@H]1[C@@H]1O[C@]13[C@]1(O[C@H]1C[C@@]1(O)C4=C(CC[C@]31C)C(=O)OC4)[C@@H]2O | 275 | 488 |
| CC(C)[C@]12O[C@H]1[C@@H]1O[C@@]13[C@@]1(C)CCC4=C(COC4=O)[C@]1(F)C[C@@H]1O[C@@]13C2=O | 223 | 429 |
| CC(C)[C@]12O[C@H]1[C@@H]1O[C@@]13[C@@]1(C)CCC4=C(COC4=O)[C@]1(O)C[C@@H]1O[C@@]13C2=O | 377 | 1030 |
| CC(C)[C@]12O[C@H]1[C@@H]1O[C@]13C(=CC[C@H]1C4=C(CC[C@@]13C)C(=O)OC4)[C@@H]2O | > 10000 | > 10000 |
| CC(C)[C@]12O[C@H]1[C@@H]1O[C@]13[C@]1(O[C@H]1C=C1C4=C(CC[C@@]13C)C(=O)OC4)[C@@H]2O | 126 | 718 |
| CC(C)[C@]12O[C@H]1[C@@H]1O[C@@]13[C@@]1(C)CCC4=C(COC4=O)[C@]1(Br)C[C@@H]1O[C@@]13[C@]21CO1 | 893 | 2040 |
| CC(C)[C@]12O[C@H]1[C@@H]1O[C@@]13[C@@]1(C)CCC4=C(COC4=O)[C@]1(Br)C[C@@H]1O[C@@]13C2=O | 104 | 558 |
| CC(C)[C@]12O[C@H]1[C@@H]1O[C@]13[C@]1(O[C@H]1C=C1C4=C(CC[C@@]13C)C(=O)OC4)[C@H]2O | 3220 | 5040 |
| CC(C)[C@]12O[C@H]1[C@@H]1O[C@@]13[C@@]1(C)CCC4=C(COC4=O)[C@@]1(O)[C@@H](O)[C@@H]1O[C@@]13C2=O | 5040 | 9860 |
| CC(C)[C@]12O[C@H]1[C@@H]1O[C@@]13[C@@]1(C)CCC4=C(COC4=O)[C@]1(Cl)C[C@@H]1O[C@@]13C2=O | 85 | 170 |
| CC(C)[C@]12O[C@H]1[C@@H]1O[C@]13[C@]1(O[C@H]1C[C@@]1(Br)C4=C(CC[C@]31C)C(=O)OC4)[C@@H]2O | 333 | 796 |
| CC(C)[C@]12O[C@H]1[C@@H]1O[C@@]13[C@@]1(C)CCC4=C(COC4=O)C1=C[C@@H]1O[C@@]13C2=O | 171 | 1630 |
| CC(C)[C@]12O[C@H]1[C@@H]1O[C@@]13[C@@]1(C)CCC4=C(COC4=O)[C@]1(O)C[C@@H]1O[C@@]13[C@]21CO1 | 2610 | 5470 |
| CC(C)[C@]12O[C@H]1[C@@H]1O[C@@]13[C@@]1(C)CCC4=C(COC4=O)[C@@]14O[C@H]4[C@@H]1O[C@@]13C2=O | 4050 | 197 |
| CC(C)[C@]12O[C@H]1[C@@H]1O[C@]13[C@@]1(O[C@@H]1C[C@H]1C4=C(CC[C@@]13C)C(=O)OC4)[C@@H]2O | > 10000 | > 10000 |
| CC(C)[C@]12O[C@H]1[C@@H]1O[C@]13[C@]1(O[C@H]1C[C@H]1C4=C(CC[C@@]13C)C(=O)OC4)[C@@H]2O [TRIPTOLIDE] | 20 | 33 |
| CC(C)[C@]12O[C@H]1[C@@H]1O[C@]13[C@]1(O[C@H]1[C@H](O)[C@@]1(O)C4=C(CC[C@]31C)C(=O)OC4)[C@H]2O | > 10000 | > 10000 |
| CC(C)[C@]12O[C@H]1[C@@H]1O[C@@]13[C@@]1(C)CCC4=C(COC4=O)[C@]1(Cl)C[C@@H]1O[C@@]13[C@]21CO1 | 871 | 925 |
| CC(C)[C@]12O[C@H]1[C@@H]1O[C@@]13[C@@]1(C)CCC4=C(COC4=O)[C@]1(O)[C@@H](O)[C@@H]1O[C@@]13C2=O | 2270 | 2970 |
| CC(C)[C@]12O[C@H]1[C@@H]1O[C@@]13[C@@]1(C)CCC4=C(COC4=O)[C@@H]1C[C@@H]1O[C@@]13C2=O [TRIPTONIDE] | 26 | 31 |
| CC(C)[C@]12O[C@H]1[C@@H]1O[C@]13[C@]1(O[C@H]1[C@H](O)[C@@]1(O)C4=C(CC[C@]31C)C(=O)OC4)[C@@H]2O | 589 | 1580 |
